≈ marks a conversion by molar mass, not a printed value. Values belong to the molecule of their own block, whether it stands above or below them. Calls of active or inactive are those of the source. No cut-off for these calls is given here.
Assays:
Streptococcus pneumoniae [1] = assay: Antibacterial activity against Streptococcus pneumoniae 1629 after 18 to 24 hrs by broth microdilution method; assay type: functional
[2] = Distribution coefficient, log D of the compound at pH 7.4; assay type: physicochemical; conditions: octanol/water
Staphylococcus aureus = assay: Antibacterial activity against Staphylococcus aureus WCUH 29 after 18 to 24 hrs by broth microdilution method; assay type: functional
[3] = Inhibition of Escherichia coli DNA gyrase-dependent DNA replication by scintillation proximity assay
Haemophilus influenzae = assay: Antibacterial activity against Haemophilus influenzae H128 after 18 to 24 hrs by broth microdilution method; assay type: functional
Streptococcus pneumoniae [4] = assay: Antibacterial activity against Streptococcus pneumoniae 1629 infected in rat respiratory tract infection model assessed as log reduction in bacterial burden at 50 mg/kg, po after 1 hr post infection relative to non-treated control; assay type: functional
Streptococcus pneumoniae [5] = assay: Antibacterial activity against Streptococcus pneumoniae 1629 infected in rat respiratory tract infection model assessed as complete eradication of bacterial burden at 50 mg/kg, po after 31 hrs post infection; assay type: functional, organism-based; set-up: dose 50 mg/kg
[6] = Inhibition of Haemophilus influenzae DNA gyrase-dependent DNA replication by scintillation proximity assay
Streptococcus pneumoniae [7] = assay: Antibacterial activity against Streptococcus pneumoniae 1629 infected in rat respiratory tract infection model assessed as log reduction in bacterial burden at 50 mg/kg, po after 48 hrs post infection relative to non-treated control; assay type: functional
[8] = target: T1, Voltage-gated inwardly rectifying potassium channel KCNH2 (Homo sapiens, UniProt Q12809); assay: Displacement of [3H]dofetilide from human ERG by liquid scintillation counting
[9] = Mean residence time in cynomolgus monkey at 3.1 mg/kg, iv; assay type: ADME, organism-based, Macaca fascicularis; set-up: dose 3.1 mg/kg, route intravenous; conditions: in vivo
[10] = Half life in Sprague-Dawley rat at 3.5 mg/kg, iv; assay type: ADME, organism-based; set-up: dose 3.5 mg/kg, route intravenous; conditions: in vivo
[11] = AUC in cynomolgus monkey at 5.2 mg/kg, po; assay type: ADME, organism-based, Macaca fascicularis; set-up: dose 5.2 mg/kg, route oral; conditions: plasma
[12] = Plasma protein binding in rat; assay type: ADME, cell-free; conditions: read-out: PPB (converted)
[13] = Half life in Beagle dog at 3.5 mg/kg, iv; assay type: ADME, organism-based, Canis lupus familiaris; set-up: dose 3.5 mg/kg, route intravenous; conditions: in vivo
[14] = Mean residence time in Beagle dog at 3.5 mg/kg, iv; assay type: ADME, organism-based, Canis lupus familiaris; set-up: dose 3.5 mg/kg, route intravenous; conditions: in vivo
[15] = Half life in cynomolgus monkey at 3.1 mg/kg, iv; assay type: ADME, organism-based, Macaca fascicularis; set-up: dose 3.1 mg/kg, route intravenous; conditions: in vivo
[16] = Plasma protein binding in cynomolgus monkey; assay type: ADME, cell-free, Macaca fascicularis; conditions: read-out: PPB (converted)
[17] = Plasma protein binding in human; assay type: ADME, cell-free; conditions: read-out: PPB (converted)
[18] = Volume of distribution at steady state in Sprague-Dawley rat at 3.5 mg/kg, iv; assay type: ADME, organism-based; set-up: dose 3.5 mg/kg, route intravenous; conditions: in vivo, read-out: Vdss
Liver microsomes = assay: Intrinsic clearance in human liver microsomes; assay type: ADME, Microsome
[19] = Intrinsic clearance in cynomolgus monkey liver microsomes; assay type: ADME, Macaca fascicularis, Microsome
[20] = AUC in Beagle dog at 4 mg/kg, po; assay type: ADME, organism-based, Canis lupus familiaris; set-up: dose 4 mg/kg, route oral; conditions: plasma
[21] = Oral bioavailability in Beagle dog at 4 mg/kg; assay type: ADME, organism-based, Canis lupus familiaris; conditions: in vivo
Liver = assay: Intrinsic clearance in dog liver microsomes; assay type: ADME, Canis lupus familiaris, Microsome
[22] = Mean residence time in Sprague-Dawley rat at 3.5 mg/kg, iv; assay type: ADME, organism-based; set-up: dose 3.5 mg/kg, route intravenous; conditions: in vivo
[23] = Volume of distribution at steady state in cynomolgus monkey at 3.1 mg/kg, iv; assay type: ADME, organism-based, Macaca fascicularis; set-up: dose 3.1 mg/kg, route intravenous; conditions: in vivo, read-out: Vdss
[24] = Volume of distribution at steady state in Beagle dog at 3.5 mg/kg, iv; assay type: ADME, organism-based, Canis lupus familiaris; set-up: dose 3.5 mg/kg, route intravenous; conditions: in vivo, read-out: Vdss
[25] = Blood clearance in Sprague-Dawley rat at 3.5 mg/kg, iv; assay type: ADME, organism-based; set-up: dose 3.5 mg/kg, route intravenous; conditions: whole blood
[26] = Blood clearance in cynomolgus monkey at 3.1 mg/kg, iv; assay type: ADME, organism-based, Macaca fascicularis; set-up: dose 3.1 mg/kg, route intravenous; conditions: whole blood
[27] = Oral bioavailability in Sprague-Dawley rat at 5.6 mg/kg; assay type: ADME, organism-based; conditions: in vivo
[28] = AUC in Sprague-Dawley rat at 5.6 mg/kg, po; assay type: ADME, organism-based; set-up: dose 5.6 mg/kg, route oral; conditions: plasma
[29] = target: T1, Voltage-gated inwardly rectifying potassium channel KCNH2; assay: Inhibition of human ERG expressed in HEK293 cells by patch-clamp electrophysiology; assay type: cell-based
Cynomolgus monkey = assay: Hepatic blood flow in cynomolgus monkey; assay type: ADME, organism-based, Macaca fascicularis, Liver
[30] = Blood clearance in Beagle dog at 3.5 mg/kg, iv; assay type: ADME, organism-based, Canis lupus familiaris; set-up: dose 3.5 mg/kg, route intravenous; conditions: whole blood
Rattus norvegicus = organism: Rattus norvegicus; assay: Hepatic blood flow in Sprague-Dawley rat; assay type: ADME, organism-based, Liver
Canis familiaris = organism: Canis familiaris; assay: Hepatic blood flow in Beagle dog; assay type: ADME, organism-based, Canis lupus familiaris, Liver
[31] = Oral bioavailability in cynomolgus monkey at 5.2 mg/kg; assay type: ADME, organism-based, Macaca fascicularis; conditions: in vivo

T1 sequence (Q12809 whole entry): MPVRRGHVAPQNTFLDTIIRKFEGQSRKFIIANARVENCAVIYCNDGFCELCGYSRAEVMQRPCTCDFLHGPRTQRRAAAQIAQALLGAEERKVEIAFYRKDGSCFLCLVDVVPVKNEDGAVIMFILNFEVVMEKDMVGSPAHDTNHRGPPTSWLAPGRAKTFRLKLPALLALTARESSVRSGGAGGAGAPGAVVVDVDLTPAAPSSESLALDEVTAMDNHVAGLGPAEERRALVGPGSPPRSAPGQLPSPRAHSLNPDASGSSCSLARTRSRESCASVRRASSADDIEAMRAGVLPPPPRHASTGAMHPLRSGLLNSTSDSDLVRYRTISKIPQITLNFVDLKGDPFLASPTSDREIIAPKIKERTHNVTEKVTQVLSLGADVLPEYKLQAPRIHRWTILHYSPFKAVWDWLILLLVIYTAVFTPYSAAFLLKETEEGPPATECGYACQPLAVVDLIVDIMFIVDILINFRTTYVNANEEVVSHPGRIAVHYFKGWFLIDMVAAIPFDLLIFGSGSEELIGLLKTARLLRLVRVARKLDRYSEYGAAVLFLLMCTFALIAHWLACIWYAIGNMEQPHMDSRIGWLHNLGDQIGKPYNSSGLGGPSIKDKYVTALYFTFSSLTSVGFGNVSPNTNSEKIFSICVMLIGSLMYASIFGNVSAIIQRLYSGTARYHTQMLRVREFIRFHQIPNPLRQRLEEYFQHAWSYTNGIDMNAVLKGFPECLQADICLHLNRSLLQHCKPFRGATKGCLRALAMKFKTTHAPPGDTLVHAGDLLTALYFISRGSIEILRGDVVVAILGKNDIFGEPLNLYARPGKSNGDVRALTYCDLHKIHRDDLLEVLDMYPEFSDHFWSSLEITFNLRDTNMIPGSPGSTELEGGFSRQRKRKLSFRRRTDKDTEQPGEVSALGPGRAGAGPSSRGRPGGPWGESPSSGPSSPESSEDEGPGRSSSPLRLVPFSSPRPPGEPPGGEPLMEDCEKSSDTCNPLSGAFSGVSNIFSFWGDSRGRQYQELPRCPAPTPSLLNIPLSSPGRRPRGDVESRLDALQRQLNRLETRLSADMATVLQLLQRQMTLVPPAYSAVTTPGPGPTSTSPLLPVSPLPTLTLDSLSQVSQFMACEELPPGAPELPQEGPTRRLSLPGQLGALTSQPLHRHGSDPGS

- MIC (Streptococcus pneumoniae [1]): 0.125 µg/mL (≈ 0.278 µM)
- logD [2]: 0.87
- MIC (Staphylococcus aureus): 0.125 µg/mL (≈ 0.278 µM)
- IC50 [3]: 0.008 µg/mL (≈ 0.0178 µM)
- MIC (Haemophilus influenzae): 0.5 µg/mL (≈ 1.11 µM)
SMILES: COc1ccc2nccc([C@@H](O)CN3CCC(NCc4ccc5c(c4)OCCO5)CC3)c2c1

- MRT [9]: 4.6 h
- half-life [10]: 2.5 h
- MIC (Streptococcus pneumoniae [1]): 0.06 µg/mL (≈ 0.128 µM)
- AUC [11]: 720 ng·h/mL
- fraction unbound [12]: 0.589
- half-life [13]: 12.4 h
- MRT [14]: 16.5 h
- logD [2]: 0.59
- half-life [15]: 5.6 h
- fraction unbound [16]: 0.354
- fraction unbound [17]: 0.307
- Vd [18]: 9.8 L/kg
- CL (Liver microsomes): < 0.6 mL/min/g
- CL [19]: 4.8 mL/min/g
- AUC [20]: 2510 ng·h/mL
- MIC (Staphylococcus aureus): 0.03 µg/mL (≈ 0.0639 µM)
- bioavailability [21]: 76%
- CL (Liver): 0.7 mL/min/g
- MRT [22]: 2.5 h
- Vd [23]: 4.1 L/kg
- Vd [24]: 16.5 L/kg
- clearance [25]: 67.2 mL/min/kg
- MIC (Haemophilus influenzae): 0.5 µg/mL (≈ 1.06 µM)
- clearance [26]: 15.2 mL/min/kg
- bioavailability [27]: 51%
- AUC [28]: 720 ng·h/mL
- QH (Cynomolgus monkey): 35%
- clearance [30]: 16.7 mL/min/kg
- QH (Rattus norvegicus): 100%
- IC50 [6]: 0.078 µg/mL (≈ 0.166 µM)
- QH (Canis familiaris): 35%
- bioavailability [31]: 12%
SMILES: COc1ccc2ncc(F)c([C@@H](O)CN3CCC(NCc4cc5c(cn4)OCCO5)CC3)c2n1
- log10cfu (Streptococcus pneumoniae [4]): 2
- Activity (Streptococcus pneumoniae [5]): Active
- IC50 [8]: 79.4 µM
- IC50 [29]: 5 µM
- log10cfu (Streptococcus pneumoniae [7]): >=4

- MIC (Streptococcus pneumoniae [1]): 0.03 µg/mL (≈ 0.0639 µM)
- logD [2]: 2.16
- MIC (Staphylococcus aureus): 0.01 µg/mL (≈ 0.0213 µM)
- MIC (Haemophilus influenzae): 0.5 µg/mL (≈ 1.06 µM)
- IC50 [6]: 0.058 µg/mL (≈ 0.124 µM)
SMILES: COc1ccc2ncc(F)c(CCN3CC[C@@H](NCc4cc5c(cn4)OCCO5)[C@H](O)C3)c2n1

- MIC (Streptococcus pneumoniae [1]): 0.01 µg/mL (≈ 0.022 µM)
- logD [2]: 1.81
- MIC (Staphylococcus aureus): 0.01 µg/mL (≈ 0.022 µM)
- MIC (Haemophilus influenzae): 0.125 µg/mL (≈ 0.276 µM)
- IC50 [6]: 0.051 µg/mL (≈ 0.112 µM)
SMILES: COc1ccc2ncc(F)c(CCN3CCC(NCc4cc5c(cn4)OCCO5)CC3)c2n1
- log10cfu (Streptococcus pneumoniae [4]): 2
- Activity (Streptococcus pneumoniae [5]): Active
- log10cfu (Streptococcus pneumoniae [7]): >=4

- MIC (Streptococcus pneumoniae [1]): 0.01 µg/mL (≈ 0.0213 µM)
- logD [2]: 2.4
- MIC (Staphylococcus aureus): 0.01 µg/mL (≈ 0.0213 µM)
- MIC (Haemophilus influenzae): 0.25 µg/mL (≈ 0.532 µM)
- IC50 [6]: 0.027 µg/mL (≈ 0.0575 µM)
SMILES: COc1ccc2ncc(Cl)c(CCN3CCC(NCc4cc5c(cn4)OCCO5)CC3)c2n1
- log10cfu (Streptococcus pneumoniae [4]): 2
- Activity (Streptococcus pneumoniae [5]): Active
- IC50 [8]: 2 µM
- IC50 [29]: 2 µM
- log10cfu (Streptococcus pneumoniae [7]): >=4

- MIC (Streptococcus pneumoniae [1]): 0.03 µg/mL (≈ 0.0639 µM)
- logD [2]: 2.1
- MIC (Staphylococcus aureus): 0.01 µg/mL (≈ 0.0213 µM)
- MIC (Haemophilus influenzae): 0.5 µg/mL (≈ 1.06 µM)
- IC50 [6]: 0.058 µg/mL (≈ 0.124 µM)
SMILES: COc1ccc2ncc(F)c(CCN3CC[C@H](NCc4cc5c(cn4)OCCO5)[C@@H](O)C3)c2n1

Further lines, the molecule ahead of its results:

SMILES: COc1ccc2ncc(F)c(CCN3CC[C@H](NCc4cc5c(cn4)OCCO5)[C@H](O)C3)c2n1
- MIC (Streptococcus pneumoniae [1]): 0.06 µg/mL (≈ 0.128 µM)
- logD [2]: 1.52
- log10cfu (Streptococcus pneumoniae [4]): 2
- MIC (Staphylococcus aureus): 0.03 µg/mL (≈ 0.0639 µM)
- Activity (Streptococcus pneumoniae [5]): Active
- MIC (Haemophilus influenzae): 0.5 µg/mL (≈ 1.06 µM)
- IC50 [6]: 0.072 µg/mL (≈ 0.153 µM)
- log10cfu (Streptococcus pneumoniae [7]): >=4

SMILES: COc1ccc2ncc(F)c([C@H](O)CN3CCC(NCc4cc5c(cn4)OCCO5)CC3)c2n1
- MIC (Streptococcus pneumoniae [1]): 0.125 µg/mL (≈ 0.266 µM)
- MIC (Staphylococcus aureus): 0.06 µg/mL (≈ 0.128 µM)
- IC50 [8]: 63.1 µM
- MIC (Haemophilus influenzae): 1 µg/mL (≈ 2.13 µM)
- IC50 [6]: 0.098 µg/mL (≈ 0.209 µM)

SMILES: COc1ccc2nccc([C@@H](O)CN3CCC(NCc4cc5c(cn4)OCCO5)CC3)c2n1
- MIC (Streptococcus pneumoniae [1]): 0.125 µg/mL (≈ 0.277 µM)
- logD [2]: 0.62
- MIC (Staphylococcus aureus): 0.06 µg/mL (≈ 0.133 µM)
- IC50 [3]: 0.056 µg/mL (≈ 0.124 µM)
- IC50 [8]: 25.1 µM
- MIC (Haemophilus influenzae): 2 µg/mL (≈ 4.43 µM)
- IC50 [29]: 4 µM
- IC50 [6]: 0.016 µg/mL (≈ 0.0354 µM)

SMILES: COc1ccc2ncc(C#N)c(CCN3CCC(NCc4cc5c(cn4)OCS5)CC3)c2c1
- MIC (Streptococcus pneumoniae [1]): 0.01 µg/mL (≈ 0.0217 µM)
- logD [2]: 2.32
- MIC (Staphylococcus aureus): 0.01 µg/mL (≈ 0.0217 µM)
- IC50 [8]: 0.5 µM
- MIC (Haemophilus influenzae): 0.25 µg/mL (≈ 0.542 µM)
- IC50 [29]: 2 µM
- IC50 [6]: 0.06 µg/mL (≈ 0.13 µM)

SMILES: COc1ccc2ncc(C#N)c(CCN3CCC(NCc4cc5c(cn4)OCCO5)CC3)c2n1
- MIC (Streptococcus pneumoniae [1]): 0.03 µg/mL (≈ 0.0651 µM)
- logD [2]: 1.48
- MIC (Staphylococcus aureus): 0.01 µg/mL (≈ 0.0217 µM)
- MIC (Haemophilus influenzae): 0.5 µg/mL (≈ 1.09 µM)
- IC50 [6]: 0.144 µg/mL (≈ 0.313 µM)

SMILES: COc1ccc2ncc(F)c(CCN3CC[C@@H](NCc4cc5c(cn4)OCCO5)[C@@H](O)C3)c2n1
- MIC (Streptococcus pneumoniae [1]): 0.06 µg/mL (≈ 0.128 µM)
- logD [2]: 1.38
- log10cfu (Streptococcus pneumoniae [4]): 2
- MIC (Staphylococcus aureus): 0.01 µg/mL (≈ 0.0213 µM)
- Activity (Streptococcus pneumoniae [5]): Active
- MIC (Haemophilus influenzae): 0.5 µg/mL (≈ 1.06 µM)
- IC50 [6]: 0.051 µg/mL (≈ 0.109 µM)
- log10cfu (Streptococcus pneumoniae [7]): >=4

SMILES: COc1ccc2ncc(F)c(CCN3CCC(NCc4cc5c(cn4)OCCO5)CC3)c2c1
- MIC (Streptococcus pneumoniae [1]): 0.03 µg/mL (≈ 0.0663 µM)
- logD [2]: 2.03
- MIC (Staphylococcus aureus): 0.01 µg/mL (≈ 0.0221 µM)
- IC50 [8]: 5 µM
- MIC (Haemophilus influenzae): 0.25 µg/mL (≈ 0.552 µM)
- IC50 [29]: 6 µM
- IC50 [6]: 0.031 µg/mL (≈ 0.0685 µM)

Reference: ChEMBL document CHEMBL1926511, “Novel amino-piperidines as potent antibacterials targeting bacterial type IIA topoisomerases” (Bioorg Med Chem Lett, 2011)
